According to US20240197812A1, “Methods of Treating Cardiac Injury” (Proletariat Therapeutics, Inc., priority 2022, published 2024):

Test system: critically ill patients with vasodilatory shock
Test: Prospective observational study: safety (thromboembolic events, serum troponin elevation)
Format: in vivo
Conditions: for Elevated serum troponin - %: troponin I level ≥20 ng/L
Procedure: A prospective observational study was conducted to evaluate the efficacy, safety feasibility of using angiotensin II as a primary vasopressor for treatment of critically ill patients with vasodilatory shock.
Study Population: A total of 40 patients receiving angiotensin II were matched to 80 control patients who received conventional vasopressors (norepinephrine, vasopressin, metaraminol, epinephrine, or combinations thereof). […] The mean patient age was 63 years (SD 14 years), two-thirds of patients were male, and the median APACHE III score was 65 (IQR 49 to 80). There were no significant differences between groups in terms of demographics, clinical characteristics, illness severity, baseline vasopressor type and dose, physiological parameters, or biochemistry.
Vasodilatory shock was defined by a mean arterial pressure <65 mmHg in the presence of sufficient volume resuscitation and preserved cardiac output, based on either a cardiac index ≥2.3 L/min/m^2, a central venous oxygen saturation ≥70%, or clinician judgement. Patients were excluded if they had kidney failure (i.e., chronic hemodialysis, peritoneal dialysis or a baseline estimated glomerular filtration rate <15 mL/min/1.73 m^2) or were diagnosed with arterial (acute coronary syndrome, ischemic stroke, or mesenteric ischemia) or venous thrombosis (deep vein thrombosis or pulmonary embolism) within the preceding 6 months. […] The mean patient age was 63 (SD 14) years, two-thirds of patients were male, and the median APACHE III score was 65 (IQR 49 to 80). There were no significant differences between the angiotensin II group and the conventional vasopressor group in terms of demographics, clinical characteristics, illness severity, vasopressor type and use, physiological parameters, or biochemistry.
Intervention: Infusions of angiotensin II were initiated to deliver a dose between 5 and 10 ng/kg/min. The dose was adjusted every 5 minutes according to a protocolized titration scheme to achieve a mean arterial pressure (MAP) of ≥65 mmHg (dose range 1.25 to 40 ng/kg/min). During the adjustment period, infusions of other vasopressor agents were weaned and discontinued where possible. Where the MAP was inadequate despite the maximum dose of angiotensin II, additional vasopressor agents were prescribed at the discretion of the clinician. The use of vasopressin (dose range 0.01 to 0.04 IU/min) was preferred over the use of norepinephrine (dose range 0 to 40 mcg/min). Angiotensin II was continued until resolution of shock, death, or for a maximum of 7 days. If ongoing vasopressor therapy was required after this time, norepinephrine was utilized.
Control: The control arm included critically ill patients with vasodilatory shock who received conventional vasopressors. To address confounding by indication and other sources of bias arising from the use of non-randomized data, a propensity score was estimated for the likelihood of treatment with angiotensin II to match patients in the intervention arm to their nearest neighbor in the control arm using a 1:2 ratio without replacement. Propensity scores were generated based on age, sex, APACHE II score, serum creatinine level, vasopressor type and dose at enrollment, and time from ICU admission and initiation of any vasopressor to initiation of angiotensin II.
Secondary Outcomes: Secondary renal outcomes included new or progressive AKI, creatinine trajectory, the requirement for CRRT, time to CRRT liberation, and the development of a major adverse kidney event at day 7 (MAKE7). New AKI was defined and staged according to the Kidney Disease Improving Global Outcomes (KDIGO) criteria as a rise in serum creatinine of ≥26.5 μmol/L in 48 hours or as a ≥50% increase in serum creatinine from baseline within 7 days. Progressive AKI was defined as an increase in AKI severity by at least one KDIGO stage. MAKE7 was a composite of death, dialysis dependence, and a persistent 50% increase in serum creatinine level. […]

With `CC[C@H](C)[C@H](NC(=O)[C@H](Cc1ccc(O)cc1)NC(=O)[C@@H](NC(=O)[C@H](CCCNC(=N)N)NC(=O)[C@@H](N)CC(=O)O)C(C)C)C(=O)N[C@@H](Cc1cnc[nH]1)C(=O)N1CCC[C@H]1C(=O)N[C@@H](Cc1ccccc1)C(=O)O` [Angiotensin II, Asp-Arg-Val-Tyr-Ile-His-Pro-Phe] the “Deep vein thrombosis - %” value (in vivo) was “(5) %”, the “Pulmonary embolus - %” value (in vivo) was “(10) %” and the “Deep vein thrombosis - no.” value (number of patients) was 2. The “Pulmonary embolus - no.” value (number of patients) was 4, the “Elevated serum troponin - %” value was “(8) %” and the “Elevated serum troponin - %” value (listed as angiotensin II) was 8%.
